Assay results: US6355811B1, “Polyoxypropylenepolyethylene vitamin E and preparation thereof” (priority 1998, dated 2002)

Key:
[1] = Foaming ability and foam stability, dynamic foam test; format: physicochemical; conditions: 20° C.; for Foam Stability: 0.1% solution in water, foam at three minutes after stirring; for Foaming Ability: 0.1% solution in water, 1,000 rpm, 1 min
Procedure: The foaming ability and foam stability were determined according to a dynamic foam test. First, in a 2 L scaled cylinder with an inner diameter of 10 cm were charged 40 ml of a 0.1% solution of each sample in water and the solution was stirred at 1,000 rpm 20° C. for 1 min with an agimixer. The height of the foam layer thus formed was regarded as foaming ability while the ratio of the volume of the foam layer formed immediately after the stirring to the same maintained at three minutes after the stirring, was denoted as foam stability.

[2] = Surface tension by the du Nuoy method; format: physicochemical; conditions: 0.1% aqueous solution, 20° C.
Procedure: At 20° C., 0.1% solutions of samples in water were measured for surface tension according to the du Nuoy method with the aid of a surface tension balance manufactured by Fisher Scientific.

rabbits = assay: Primary eye irritation test according to Draize; format: in vivo
Procedure: In order to evaluate the safety of the novel polyoxypropylenepolyoxyethylene vitamin E, a primary eye irritation test was conducted on rabbits as taught by Draize. The polyoxypropylenepolyoxyethylene vitamin E (5) prepared in Example V, polyoxyethylene (12EO) nonylphenylether and polyoxyethylene (20EO) sorbitan monostearate each was diluted with a 10% aqueous glycerine solution to give a 10% sample solution. This test sample was dropped onto one eye of each of 6 rabbits weighing 2-3 kg while the other eye was used as a control. 24 hours later, the average scores were recorded according to the Draize scoring for ocular lesions. If lesions were present, the time was extended; otherwise, observation was ceased.

human body = assay: Patch test, Finn Chamber method; format: in vivo; conditions: human brachium, ICDRG standard
Procedure: In order to confirm non-toxicity of the polyoxypropylenepolyoxyethylene vitamin E according to the present invention, a patch test was conducted on the human body according to the Finn Chamber method. The subjects of this test were all females 15-35 years old. A sample material was dropped onto the brachium of each of the subjects and a dermicel tape was bonded thereto. The skin irritations were evaluated as a response rate (%) according to an International Contact Dermatitis Research Group (ICDRG) standard after 24 or 48 hour.

[3] = Anti-oxidation activity: peroxide value of linoleic acid with added sample; conditions: sample 0.5% in linoleic acid, stored at 40° C.
Procedure: An examination was made of the anti-oxidation activity of the polyoxypropylenepolyoxyethylene vitamin E, using linoleic acid. The linoleic acid used was a reagent purchased from Sigma, U.S.A., comprising linoleic acid 75% and linolenic acid 12.5%.
The polyoxypropylenepolyoxyethylene vitamin E(1) prepared in Example I was added at an amount of 0.5% in the linoleic acid while vitamin E, vitamin E acetate, polyoxyethylene (12EO) vitamin E, polyoxyethylene (20EO) sorbitan monostearate (TWEEN-60), and polyoxyethylene (12EO) nonylphenylether (Igepal-CO880) were also used as references. These samples were stored in an incubator maintained at 40° C. At two days and ten days after the incubation, a peroxide value was determined for each sample. In detail, in a 250 ml Erlenmeyer flask was placed 1.0 g of each of the samples, and 10 ml of chloroform were added to dissolve the sample, after which 15 ml of glacial acetic acid and 1 ml of saturated potassium iodide solution were added and a stopper was put in the flask. After being vigorously shaken, the flask was allowed to stand in a dark place for 5 min. Thereafter, the flask was added with 75 ml of distilled water and vigorously shaken. Free iodine was titrated with a 0.01 N sodium thiosulfate solution, using a starch solution as an indicator. The point at which the solution became colorless was regarded as the end point. The peroxide value was calculated as follows: [formula]
S: Amount of 0.01 N sodium thiosulfate solution consumed by sample (ml)
B: Amount of 0.01 N sodium thiosulfate solution consumed in blank test tube (ml)
F: Factor of 0.01 N sodium thiosulfate solution

Row | Foam Stability [1] [%] | Foaming Ability [1] [cc] | Surface Tension [2] [dyne/cm] | Response Rate, 24 h (human body) [%] | Response Rate, 48 h (human body) [%] | Molecule | Eye irritation, Avg. Values (Draize scoring for ocular lesions) (rabbits; 10% sample solution in 10% aqueous glycerine, rabbit eye, 24 hours) | Peroxide Values After 2 days [3] | Peroxide Values After 10 days [3] | Eye irritation, Avg. Values (Draize scoring for ocular lesions) (rabbits; rabbit, in vivo)
1 | 89.6 | 246 | 38.4 | – | – | polyoxyethylene (24EO) cholesterol [24 EO Cholesterol] | – | – | – | –
2 | – | – | – | 0.6 | 0.0 | polyoxyethylene (20EO) sorbitan monostearate [20EO sorbitan mono stearate] | 0.16 | 25.0 | 126.6 | –
3 | – | – | – | – | – | vitamin E | – | 21.6 | 58.9 | –
4 | – | – | – | – | – | CC(=O)Oc1c(C)c(C)c2c(c1C)CCC(C)(CCC[C@H](C)CCC[C@H](C)CCCC(C)C)O2 (stereo partly shown) [Acetate of vitamin E, vitamin E acetate] | – | 27.2 | 123.3 | –
5 | 46.5 | 125 | 56.3 | 1.6 | 0.8 | polyoxyethylene (12EO) vitamin E [12EO vitamin E] | – | 26.0 | 124.6 | 0.19
6 | – | – | – | 2.4 | 2.0 | polyoxyethylene (12EO) nonylphenylether [12EO nonylphenylether] | – | 28.9 | 178.5 | 0.35
